# From PubChem BioAssay AID1645868 (Buhrlage Lab, Dana-Farber Cancer Institute and Novartis …, 2021)
# pIC50: −log10 of the molar value. Active and inactive are the calls of the source.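 Rule for the calls: active = maximal percent inhibition of the deubiquitinase OTUD3 of at least 30% across the tested doses; inactive = the rest.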
# Biological target: OTU domain-containing protein 3 (Homo sapiens) (UniProt Q5T2D3)
# Assay: Validation of screening hits, potency titration, in vitro enzymatic, OTU domain-containing protein 3 DUB inhibitors (AID 1645868)
# Details: purified OTUD3, ubiquitin-rhodamine cleavage fluorescence, 2 h
# OTU domain-containing protein 3 (Homo sapiens), sequence (Q5T2D3 whole entry, looked up, the tested form may be a part): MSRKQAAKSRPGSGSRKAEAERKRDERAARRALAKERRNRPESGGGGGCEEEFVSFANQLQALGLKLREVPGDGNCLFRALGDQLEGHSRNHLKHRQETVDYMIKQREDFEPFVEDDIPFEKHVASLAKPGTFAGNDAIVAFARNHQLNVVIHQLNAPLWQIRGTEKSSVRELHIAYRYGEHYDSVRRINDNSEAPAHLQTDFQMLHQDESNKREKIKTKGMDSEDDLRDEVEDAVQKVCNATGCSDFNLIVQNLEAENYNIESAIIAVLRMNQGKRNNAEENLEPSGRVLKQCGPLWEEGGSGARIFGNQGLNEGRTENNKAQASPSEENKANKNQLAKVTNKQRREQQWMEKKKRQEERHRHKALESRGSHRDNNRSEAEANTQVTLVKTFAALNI
pIC50,IC50,SMILES
4.34,,COc1cccc(/C=C/C(=O)Nc2ccc(C)c(Cl)c2)c1
,> 50 µM (inactive),Cc1ccccc1OCCC(=O)Nc1cccc(S(=O)(=O)Nc2ccccc2Cl)c1
4.54,,Cc1cc(=O)n(CC(=O)NCc2ccccc2F)c2c1c(C)nn2-c1ccccc1
,> 50 µM (inactive),O=c1c(-c2nc(C3CC3)no2)cccn1Cc1c(F)cccc1Cl
4.60,,O=C(CC1C(=O)Nc2nc(-c3ccccc3)nn21)Nc1cccc2ccccc12 (configuration not stated)
,> 50 µM (inactive),COc1cc(Cl)c(C)cc1NC(=O)Cn1c(=O)n(CC(=O)NCc2ccco2)c(=O)c2ccccc21
,> 50 µM (inactive),C/C1=C\CCC(C)C(O)CC(O)C(C)C(O)CCC(C)C(O)CC2(O)OC(CC(OC(=O)CC(=O)O)CC(O)CC(O)CC(O)C(C)C(O)/C=C/C(C)C(C(C)CCCCCCCCN=C(N)N)OC1=O)CC(O)C2O (configuration not stated)
,> 50 µM (inactive),COc1cc2cc3c(c(O)c2c(O)c1-c1c(OC)cc2cc4c(c(O)c2c1O)C(=O)OC1CC(C)OC41)C(=O)OC1CC(C)OC31 (configuration not stated)
4.56,,CCc1cccc(CC)c1NC(=O)COC(=O)c1cc2cccc(OC)c2oc1=O
,> 50 µM (inactive),CN1C(=O)COc2ccc(NC(=O)c3cc(-c4ccccc4)on3)cc21
,> 50 µM (inactive),COc1cccc(CNC(=O)C2=Cc3cccc(OC)c3OC2)c1
4.67,,COC(=O)c1sc2ccccc2c1NC(=O)c1ccc(Br)s1
4.68,,Cc1ccccc1NC(=O)CNc1nc(Nc2ccccc2)nc(Nc2ccccc2)n1
4.50,,CC(C)NC(=O)CN1C(=O)CC(C)Sc2ccc(S(=O)(=O)N3CCCCC3)cc21 (configuration not stated)
4.33,,Cc1cc(C(=O)NC2(O)C(=O)c3ccccc3C2=O)n(C)n1
5.70,,Cc1ccc(-n2c(-c3ccccc3)cn3c4c(=O)[nH]c(=O)n(C)c4nc23)cc1C
5.55,,Cc1cccc(C)c1NC(=O)Cn1c(=O)n(CCCCC(=O)NCc2ccc3c(c2)OCO3)c(=O)c2ccccc21
,> 50 µM (inactive),CC1CC(=O)Nc2ccccc2N1S(=O)(=O)c1ccc(C#N)cc1 (configuration not stated)
4.67,,COc1ccccc1Nc1ncc(C(=O)NCCc2ccc(Cl)cc2)c2ccccc12
,> 50 µM (inactive),CCc1nc2cc(NC(=O)c3cccc(N4CCCC4=O)c3)ccc2n1C
,> 50 µM (inactive),Cc1cccc(O)c1-c1nc2c(-c3nc4c(C(=O)O)cccc4o3)cccc2o1

pIC50,IC50,SMILES
4.60,,CC(=O)Nc1ccc(S(=O)(=O)NCc2ccc(C(=O)NCc3ccc(C)cc3)cc2)cc1
,> 50 µM (inactive),O=C(Nc1ccc(Oc2cccc3cccnc23)cc1)c1cccs1
,> 50 µM (inactive),CCOc1ccc(CCNC(=O)c2ccc3c(c2)N(CC)C(=O)c2ccccc2S3)cc1OCC
,> 50 µM (inactive),O=C(NCc1cccnc1)c1cnn2c(C(F)(F)F)cc(-c3ccccc3)nc12
4.39,,O=C(Nc1cccc2ccccc12)C1CCCN(S(=O)(=O)Cc2ccccc2)C1 (configuration not stated)
,> 50 µM (inactive),COc1ccc(C(=O)CCN2CCOCC2)cc1[N+](=O)[O-]
4.69,,NC(=O)c1nnn(-c2ccc(NC(=O)c3ccc(F)c(F)c3)cc2)n1
,> 50 µM (inactive),O=S1(=O)CCN(Cc2ccccc2)c2c(F)nc(N3CCCCC3)c(F)c21
,> 50 µM (inactive),CSc1cccc(NC(=O)CNC(=O)c2cc3ccccc3o2)c1
,> 50 µM (inactive),Cc1cc(C)cc(NC(=O)CSc2ccc(-c3ccncc3)nn2)c1
,> 50 µM (inactive),Cc1sc(NC(=O)/C=C/c2ccco2)nc1-c1ccccc1
,> 50 µM (inactive),COc1cc(N)c(Cl)cc1C(=O)OCC(=O)c1ccc2c(c1)OCCO2
5.33,,CCOc1ccc(NC(=O)Cn2cc(C(=O)c3ccc(Cl)cc3)c(=O)c3cc(OC)ccc32)cc1
,> 50 µM (inactive),O=C(Nc1ccc2c(c1)OCO2)c1[nH]nc2c1CCc1ccccc1-2
4.85,,Cc1ccc2c(c1)c(=O)c(C(=O)c1ccccc1)cn2CC(=O)Nc1ccc2c(c1)OCCO2
,> 50 µM (inactive),COc1ccc(NC(=O)c2nc3n(n2)-c2ccccc2S(=O)(=O)N3)cn1
,> 50 µM (inactive),CC(=O)Nc1cc2cc(-n3cccc3)ccc2oc1=O
,> 50 µM (inactive),N#Cc1ccc(Cn2nnc(-c3cccc(Cl)c3)n2)cc1
5.48,,CCCC[C@@H](C)/C=C(C)/C=C(\C)C(=O)NC1=C[C@](O)(/C=C/C=C/C=C/C(=O)NC2=C(O)CCC2=O)[C@@H]2O[C@@H]2C1=O
5.56,,CCOc1ccccc1NC(=O)Cn1c(=O)n(CCCC(=O)NCc2ccc(C)cc2)c(=O)c2sccc21
,> 50 µM (inactive),CC(=O)Nc1ccc(Cc2nc(-c3ccc4c(c3)nc(C)c(=O)n4C3CCCC3)no2)cc1

pIC50,IC50,SMILES
,> 50 µM (inactive),CCn1ccc2c(cc(C(=O)Nc3cccc(OC)c3)n2C)c1=O
,> 50 µM (inactive),CC(=O)N1Cc2ccccc2CC2(CCCN(CC3CCOCC3)C2)C1 (configuration not stated)
,> 50 µM (inactive),CC(c1ccccc1)c1nc(-c2ccc(=O)[nH]c2)no1 (configuration not stated)
,> 50 µM (inactive),CCn1c(SCc2nc(N)c3ccccc3n2)nc2ccccc21
4.80,,COc1ccc(-c2cc3nc([C@H](C)NC(=O)Cc4cccc(F)c4)nn3cn2)cc1
4.43,,Cc1cc(Nc2ccc(C(=O)NCc3ccco3)cc2)n2nc(-c3cccnc3)nc2n1
4.70,,COc1cccc(N2C(=O)N(CC(=O)NCc3ccc(Cl)cc3)c3ccccc3S2(=O)=O)c1
4.53,,O=C1Nc2c(Cl)cc(Cl)cc2C1(O)c1sc(NC2CCCCC2)nc1-c1ccccc1 (configuration not stated)
,> 50 µM (inactive),CC(C)(C)C(=O)[C@@H]1[C@@H](C(=O)c2ccc3c(c2)OCO3)[C@@]2(C(=O)Nc3ccccc32)[C@H]2c3ccccc3C=CN12
,> 50 µM (inactive),O=C(c1ccc(COc2cccc3ccccc23)o1)N1CCC(Cc2ccccc2)CC1
,> 50 µM (inactive),O=S1(=O)CCN(Cc2c(F)cccc2F)c2c(F)nc(N3CCOCC3)c(F)c21
,> 50 µM (inactive),O=C(COc1nsnc1N1CCOCC1)Nc1ccc(F)c(F)c1
,> 50 µM (inactive),O=C(COc1cccc2c1CCN(Cc1cccnc1)C2=O)Nc1ccc2c(c1)OCCO2
,> 50 µM (inactive),CCn1c(CN2CCCC(c3nc(-c4cccnc4)n[nH]3)C2)nc2ccccc21 (configuration not stated)
,> 50 µM (inactive),CN1CCN(c2ccc3nc(-c4ccccc4)c(-c4ccccc4)nc3c2)CC1
4.63,,COc1ccc(NC(=O)Cn2cc(C(=O)c3ccc(F)cc3)c(=O)c3cc(C)ccc32)cc1
,> 50 µM (inactive),COc1ccc(OC)c(-n2c(SCC(=O)N3CCc4ccccc43)nnc2-c2cccc(S(=O)(=O)N(C)C)c2)c1
4.59,,CCn1c(SCC(=O)c2c(N)n(CC(C)C)c(=O)n(C)c2=O)nnc1-c1ccccc1
,> 50 µM (inactive),CC(C)CCCCCCCCCCC(=O)N(C)[C@H](CO)C(=O)N[C@H](C)C(=O)NCC(=O)N(C)C1C(=O)N[C@@H](C)C(=O)NC(C(=O)O)Cc2ccc(O)c(c2)-c2cc1ccc2O (some centres not stated)
4.55,,COCCCNC(=O)c1ccc(Cn2c(=O)c3ccccc3n(CC(=O)Nc3ccc(OC)cc3)c2=O)cc1
5.34,,COc1ccc(COc2ccc3c(C)c(CC(=O)N4CC[C@@]5(O)CCCC[C@H]5C4)c(=O)oc3c2)cc1

pIC50,IC50,SMILES
,> 50 µM (inactive),CCCC(=O)N1CCC2(CC1)Nc1ccccc1NC2=O
,> 50 µM (inactive),CCOC(=O)c1cn(C2CC2)c2cc(N3CCNCC3)c([N+](=O)[O-])cc2c1=O
,> 50 µM (inactive),COc1ccc(C2C(C(=O)C(C)(C)C)N3c4ccccc4C=CC3C23C(=O)c2ccccc2C3=O)c(OC)c1 (configuration not stated)
,> 50 µM (inactive),O=C(c1cnccn1)N1CCc2[nH]c3ccc(F)cc3c2C1
,> 50 µM (inactive),Cc1sc2ncn3c(=O)n(CC(=O)Nc4ccc(F)c(Cl)c4)nc3c2c1C
4.66,,COc1ccc(CCNC(=O)CCCn2c(=O)c3ccccc3n(CC(=O)OCc3ccccc3)c2=O)cc1OC
,> 50 µM (inactive),Cc1ccccc1Cn1ccc(NC(=O)c2noc(C)c2[N+](=O)[O-])n1
,> 50 µM (inactive),CCc1nnc(NC(=O)c2nnn(-c3ccccc3Cl)c2C)s1
,> 50 µM (inactive),O=S1(=O)NC(=NCCc2ccc(Cl)cc2Cl)c2ccccc21
,> 50 µM (inactive),CC(C)(C)C(=O)Nc1ccc(SCc2nnc(-c3ccccc3)o2)cc1
,> 50 µM (inactive),COc1cc2c(=O)n(CCC(=O)NCc3ccco3)c(=O)n(CC(=O)Nc3c(C)cccc3C)c2cc1OC
4.63,,COc1ccc(/C=C/C(=O)Nc2c3c(nc4c2CCC4)CCCC3)cc1
,> 50 µM (inactive),CC(=O)Nc1cccc(NC(=O)COc2cccc3ccc(N4CCCC4)nc23)c1
,> 50 µM (inactive),CN=C(N)NCCC/C=C/CCCC(C)CC(C)C1OC(=O)/C=C/C(C)C(O)CC(O)C(C)C(O)CCC(C)C(O)CC2(O)OC(CC(OC(=O)CC(=O)O)CC(O)CC(O)C(C)C(O)/C=C/C1C)CC(O)C2O (configuration not stated)
,> 50 µM (inactive),COc1ccc(NCc2nc3ccccc3n2Cc2ccccc2)cc1
,> 50 µM (inactive),O=S(=O)(c1ccccc1)N1CCN2Cc3ccccc3N(Cc3ccccc3)CC2C1 (configuration not stated)
,> 5 µM (inactive),Cc1ncc(CO)c2c1Oc1nc(-c3cccc(Cl)c3)nc(SCC(=O)N3CCCCC3)c1C2
,> 50 µM (inactive),CCS(=O)(=O)c1ccccc1C(=O)Nc1ccc2sc(C)nc2c1
4.65,,COc1ccc(C(C(=O)NC2CCCCC2)N(C(=O)CCCC(=O)Nc2ccccn2)c2ccccc2C)cc1 (configuration not stated)
,> 50 µM (inactive),CCc1c(Cl)c(O)c(Cl)c(O)c1C(=O)O[C@H]1C(C)O[C@@H](OC/C2=C\C=C\CC(O)/C(C)=C/C(CC)C(O[C@@H]3OC(C)(C)[C@H](O)C(OC(=O)C(C)C)[C@@H]3O)/C(C)=C/C(C)=C/CC(C(C)O)OC2=O)[C@@H](OC)C1O (some centres not stated)

SMILES,pIC50,IC50
Cc1cc(C)nc(-n2nc(C)c3c2NC(=O)CSC3c2ccc(F)cc2F)n1 (configuration not stated),4.33,
CCOC(=O)[C@@H]1[C@@H](c2ccccc2)CN2CCN(C(=O)c3cnccn3)C[C@H]12,,> 50 µM (inactive)
COC(=O)[C@]1(O)O[C@@]2(C(=O)OC)c3c(oc4cc(C)cc(O)c4c3=O)[C@H]3c4c(oc5cc(C)cc(O)c5c4=O)C[C@H]1[C@H]32,,> 50 µM (inactive)
CC(=O)O[C@H]1[C@]2(O)C[C@]34SS[C@](CO)(C(=O)N3[C@@H]2C[C@@]12O[C@@H](C)C(C)(C)C2=O)N(C)C4=O,,> 50 µM (inactive)
